For nine compounds, EC50 results are on record in patent US8324223B2, “Substituted thieno [2,3-d] pyrimidines as HIV inhibitors” (priority 2006, dated 2012).

SMILES strings stand for the structures.

Common to all, as to experiment: microbe, parasite or virus in culture
What all share (format): cell-based, human immunodeficiency virus type 1 (HIV-1)

In one assay the test system is HIV-1 Y181C. The conditions noted are these: Human immunodeficiency virus 1, HeLa, read-out: EC50 Y181C (nM).
The subject of a further assay is wild type HIV-1. To be noted: Human immunodeficiency virus 1, Hela-JC53, read-out: EC50 WT (nM).
For a further assay, the system named is HIV-1 Y188L. The conditions noted are these: Human immunodeficiency virus 1, HeLa, read-out: EC50 Y188L (nM).
A further assay deals with HIV-1 L100I-K103N. The conditions noted are these: Human immunodeficiency virus 1, HeLa, read-out: EC50 L100I-K103N (nM).

For the compound `Cc1cc(C)c(Oc2nc(Nc3ccc(C#N)cc3)nc3c(C)csc23)c(C)c1` [Cpd 6], the concentration for a half-maximal effect (EC50) with HIV-1 Y181C, in the assay with wild type HIV-1, with HIV-1 Y188L and with HIV-1 L100I-K103N was 10 to 100 nM in each case.
Regarding `Cc1cc(C)c(Nc2nc(Nc3ccc(C#N)cc3)nc3ccsc23)c(C)c1` [Cpd 2], the 50% effective concentration (EC50) with HIV-1 Y181C is 10 to 100 nM; with wild type HIV-1, < 10 nM; in the assay on HIV-1 Y188L, > 100 nM; in the assay on HIV-1 L100I-K103N it was > 100 nM.
As to `Cc1cc(C)c(Oc2nc(Nc3ccc(C#N)cc3)nc3sc4c(c23)CCCC4)c(C)c1` [Cpd 5], the EC50 in the assay on HIV-1 Y181C is > 100 nM; in the assay on wild type HIV-1 it was 10 to 100 nM; with HIV-1 Y188L it was > 100 nM; in the assay on HIV-1 L100I-K103N it was > 100 nM.
For the compound `Cc1cc(C#N)cc(C)c1Oc1nc(Nc2ccc(C#N)cc2)nc2ccsc12` [Cpd 3], the EC50 with HIV-1 Y181C is 10 to 100 nM; in the assay with wild type HIV-1 it was < 10 nM; with HIV-1 Y188L, < 10 nM; with HIV-1 L100I-K103N, < 10 nM.
For `Cc1cc(C)c(Oc2nc(Nc3ccc(C#N)cc3)nc3sccc23)c(C)c1` [Cpd 4], the EC50 in the assay on HIV-1 Y181C was 10 to 100 nM; in the assay on wild type HIV-1 it was < 10 nM; in the assay on HIV-1 Y188L it was 10 to 100 nM; in the assay with HIV-1 L100I-K103N, 10 to 100 nM.
Take `Cc1cc(C)c(Oc2nc(Nc3ccc(C#N)cc3)nc3ccsc23)c(C)c1` [Cpd 1]: the concentration giving a half-maximal response (EC50) is < 10 nM in the assay with HIV-1 Y181C, < 10 nM in the assay with wild type HIV-1, < 10 nM with HIV-1 Y188L and 10 to 100 nM with HIV-1 L100I-K103N.
As to `Cc1cc(C)c(Nc2nc(Nc3ccc(C#N)cc3)nc3c(C)csc23)c(C)c1` [Cpd 8], the EC50 was 10 to 100 nM in the assay on HIV-1 Y181C, < 10 nM with wild type HIV-1 and 10 to 100 nM in the assay on HIV-1 Y188L.
For `Cc1cc(C#N)cc(C)c1Oc1nc(Nc2ccc(C#N)cc2)nc2c(C)csc12` [Cpd 9], the EC50 in the assay on HIV-1 Y181C, in the assay on wild type HIV-1, in the assay on HIV-1 Y188L and with HIV-1 L100I-K103N was < 10 nM each time.
Regarding `Cc1cc(C#N)cc(C)c1Oc1nc(Nc2ccc(C#N)cc2)nc2sccc12` [Cpd 7], the concentration for a half-maximal effect (EC50) is < 10 nM with HIV-1 Y181C, < 10 nM with wild type HIV-1, < 10 nM with HIV-1 Y188L and 10 to 100 nM in the assay on HIV-1 L100I-K103N.

Broadly, the EC50 is the midpoint of the concentration-response curve.
